Where “and” joins values, the source holds several entries; their conditions need not be identical. Equal entries are not always repeated. Entries after “also recorded” stand apart in the source; their conditions may differ. Where two headings read alike, the source gives them in different places.
Test: Phase 1 single ascending dose (Part A) pharmacokinetics, fasted state
Format: in vivo, human
Details: for % AUCextrap: arithmetic mean; for AUC(0-inf) / AUC(0-t) / Cmax / Vd/F / half-life / Tmax / CL renal: human; for AUC(0-inf) / AUC(0-t) / Cmax / Vd/F / half-life / Tmax: plasma
Procedure: A Phase 1, randomized, blinded, placebo-controlled safety, tolerability, and pharmacokinetic study of Compound I in 80 healthy adult subjects was conducted.
This study was a randomized, blinded, placebo-controlled, ascending-dose study to evaluate the safety, tolerability, and pharmacokinetic (PK) of single (Part A) and multiple (Part B) doses of Compound I in healthy subjects. In addition, the effects of a standard high-fat breakfast, standard low-fat breakfast, and pretreatment and co-administration of a proton pump inhibitor (PPI) on the tolerability and PK of a single dose of Compound I were investigated in 2 groups in Part A. All subjects received their full dose of Compound I, administered as the appropriate number of either 25 or 200 mg tablets. The high fat breakfast comprised the following: total energy: 895 kcal; total fat: 61 g; total protein: 41 g; total carbohydrate: 46 g. The low fat breakfast comprised the following: total energy: 611 kcal; total fat: 14.7 g; total protein: 20.3 g; total carbohydrate: 106.3 g.
In Part A, 56 subjects were studied in 6 groups (Groups A1 to A6) with each of Groups A1, A2, A3, A5, and A6 composed of 8 subjects (6 received Compound I, 2 received placebo) and Group A4 was composed of 16 subjects (12 received Compound I, 4 received placebo). The first dose group (A1) included a sentinel cohort of 2 subjects (1 subject received Compound I and 1 subject received placebo) dosed 48 hours in advance of the remainder of the group.
All subjects in Groups A1 through A6 participated in Treatment Period 1 and received the fasted treatment regimen. In Treatment Period 1, subjects resided at the Clinical Research Unit (CRU) from Day −1 (the day before dosing) to Day 4 (72 hours post-dose). In Treatment Period 1, all doses were administered on the morning of Day 1, after an overnight fast of at least 8 hours. In Groups A1, A2, A3, and A6, each subject received only a single dose of Compound I (25 mg in Group A1, 75 mg in Group A2, 200 mg in Group A3, and 1600 mg in Group A6) or placebo (per the randomization schedule) during the study.
In Part A, all doses in Treatment Period 1 were administered after an overnight fast of at least 8 hours. For the A4 cohort, in Treatment Periods 2 and 3, doses were administered 30 minutes after starting and approximately 10 minutes after completing a high- or low-fat breakfast. In Treatment Period 4, the dose was administered after an overnight fast and following administration of a PPI (PPI was comprised of 3 doses of rabeprazole 20 mg, starting on Day −2 and with the final dose 2 hours before Compound I administration on Day 1). For Group A5, doses during Treatment Period 2 were administered 30 minutes after starting and approximately 10 minutes after completing a low-fat standard breakfast on the morning of Day 1, and doses during Treatment Period 3 were administered on Day 1 after a low-fat meal and following administration of a PPI for 3 days (given as 3 QD doses, with the final PPI dose at 2 hours prior to study drug administration on Day 1).

[1] = 75 mg vs 25 mg (3-fold increase in dose)
[2] = 800-mg dose level (32.0-fold increase in dose)

- AUC0-t (norm) (25 mg single dose (A1)): 13400 hr*ng/mL/(mg/kg)
- AUC0-∞ (norm) (25 mg single dose (A1)): 13600 hr*ng/mL/(mg/kg)
- Ae0-24 (25 mg single dose (A1)): 19.2 mg
- CL/F (25 mg single dose (A1)): 90.5 mL/min
- CL/F(norm) (25 mg single dose (A1)): 1.23 (mL/min)/kg
- Cmax (norm) (25 mg single dose (A1)): 2700 ng/mL/(mg/kg)
- fe0-24 (25 mg single dose (A1)): 76.9%
- t1/2 (25 mg single dose (A1)): 3.61 h
- λZ (25 mg single dose (A1)): 0.192 h⁻¹
- % AUCextrap (25 mg single dose (A1)): 1.25%
- AUC0-t (norm) (75 mg single dose (A2)): 12600 hr*ng/mL/(mg/kg)
- AUC0-∞ (norm) (75 mg single dose (A2)): 12600 hr*ng/mL/(mg/kg)
- Ae0-24 (75 mg single dose (A2)): 54.8 mg
- CL/F (75 mg single dose (A2)): 96.0 mL/min
- CL/F(norm) (75 mg single dose (A2)): 1.32 (mL/min)/kg
- Cmax (norm) (75 mg single dose (A2)): 2180 ng/mL/(mg/kg)
- fe0-24 (75 mg single dose (A2)): 73.0%
- t1/2 (75 mg single dose (A2)): 5.02 h
- λZ (75 mg single dose (A2)): 0.138 h⁻¹
- % AUCextrap (75 mg single dose (A2)): 0.486%
- Fold increase in AUC0-t [1]: 2.9 fold
- Fold increase in AUC0-∞ [1]: 2.8 fold
- Fold increase in Cmax [1]: 2.5 fold
- AUC0-t (norm) (200 mg single dose (A3)): 12000 hr*ng/mL/(mg/kg)
- AUC0-∞ (norm) (200 mg single dose (A3)): 12100 hr*ng/mL/(mg/kg)
- Ae0-24 (200 mg single dose (A3)): 105 mg
- CL/F (200 mg single dose (A3)): 102 mL/min
- CL/F(norm) (200 mg single dose (A3)): 1.38 (mL/min)/kg
- Cmax (norm) (200 mg single dose (A3)): 1140 ng/mL/(mg/kg)
- fe0-24 (200 mg single dose (A3)): 52.5%
- λZ (200 mg single dose (A3)): 0.0602 h⁻¹
- % AUCextrap (200 mg single dose (A3)): 0.969%
- AUC0-t (norm) (400 mg single dose (A4)): 9420 hr*ng/mL/(mg/kg)
- AUC0-∞ (norm) (400 mg single dose (A4)): 9650 hr*ng/mL/(mg/kg)
- Ae0-24 (400 mg single dose (A4)): 133 mg
- CL/F (400 mg single dose (A4)): 121 mL/min
- CL/F(norm) (400 mg single dose (A4)): 1.73 (mL/min)/kg
- Cmax (norm) (400 mg single dose (A4)): 790 ng/mL/(mg/kg)
- fe0-24 (400 mg single dose (A4)): 33.3%
- λZ (400 mg single dose (A4)): 0.0594 h⁻¹
- % AUCextrap (400 mg single dose (A4)): 2.37%
- AUC0-t (norm) (800 mg single dose (A5)): 6700 hr*ng/mL/(mg/kg)
- AUC0-∞ (norm) (800 mg single dose (A5)): 7080 hr*ng/mL/(mg/kg)
- Ae0-24 (800 mg single dose (A5)): 172 mg
- CL/F (800 mg single dose (A5)): 169 mL/min
- CL/F(norm) (800 mg single dose (A5)): 2.35 (mL/min)/kg
- Cmax (norm) (800 mg single dose (A5)): 532 ng/mL/(mg/kg)
- fe0-24 (800 mg single dose (A5)): 21.5%
- λZ (800 mg single dose (A5)): 0.0433 h⁻¹
- % AUCextrap (800 mg single dose (A5)): 5.17%
- Increase in AUC and Cmax (1600 mg dose compared to 800 mg dose): no significant increase
- AUC0-t (norm) (1600 mg single dose (A6)): 3090 hr*ng/mL/(mg/kg)
- AUC0-∞ (norm) (1600 mg single dose (A6)): 3740 hr*ng/mL/(mg/kg)
- Ae0-24 (1600 mg single dose (A6)): 145 mg
- CL/F (1600 mg single dose (A6)): 307 mL/min
- CL/F(norm) (1600 mg single dose (A6)): 4.46 (mL/min)/kg
- Cmax (norm) (1600 mg single dose (A6)): 235 ng/mL/(mg/kg)
- fe0-24 (1600 mg single dose (A6)): 9.1% and 9.09%
- λZ (1600 mg single dose (A6)): 0.0351 h⁻¹
- % AUCextrap (1600 mg single dose (A6)): 6.57%
- Dose proportionality of systemic exposure (Cmax and AUC) (200-mg dose and greater): less than proportional
- Fold increase in AUC0-t [2]: 16.4 fold
- Fold increase in AUC0-∞ [2]: 17.1 fold
- Fold increase in Cmax [2]: 6.5 fold
- AUC(0-inf) (oral, 25 mg single dose (A1)): 4600 ng·h/mL
- AUC(0-t) (oral, 25 mg single dose (A1)): 4550 ng·h/mL
- Cmax (oral, 25 mg single dose (A1)): 913 ng/mL
- Vd/F (oral, 25 mg single dose (A1), read-out: Vz/F): 28.3 L
- Vd/F (oral, 25 mg single dose (A1), read-out: Vz/F(norm)): 0.384 L/kg
- half-life (oral, 25 mg, 25 mg single dose (A1)): 3.6 h
- Tmax (oral, 25 mg, 25 mg single dose (A1), median, read-out: tmax): 1.5 h
- AUC(0-inf) (oral, 75 mg single dose (A2)): 13000 ng·h/mL
- AUC(0-t) (oral, 75 mg single dose (A2)): 13000 ng·h/mL
- Cmax (oral, 75 mg single dose (A2)): 2250 ng/mL
- Vd/F (oral, 75 mg single dose (A2), read-out: Vz/F): 41.7 L
- Vd/F (oral, 75 mg single dose (A2), read-out: Vz/F(norm)): 0.574 L/kg
- half-life (oral, 75 mg, 75 mg single dose (A2)): 5 h
- Tmax (oral, 75 mg, 75 mg single dose (A2), median, read-out: tmax): 1.25 h
- Tmax (oral, 75 mg, 25 and 75 mg doses, read-out: tmax, latest individual value): ≤ 2.5 h
- AUC(0-inf) (oral, 200 mg single dose (A3)): 32600 ng·h/mL
- AUC(0-t) (oral, 200 mg single dose (A3)): 32300 ng·h/mL
- Cmax (oral, 200 mg single dose (A3)): 3060 ng/mL
- Vd/F (oral, 200 mg single dose (A3), read-out: Vz/F): 102 L
- Vd/F (oral, 200 mg single dose (A3), read-out: Vz/F(norm)): 1.37 L/kg
- half-life (oral, 200 mg, 200 mg single dose (A3)): 10.2 h
- Tmax (oral, 200 mg, 200 mg single dose (A3), median, read-out: tmax): 1.75 h
- AUC(0-inf) (oral, 400 mg single dose (A4)): 55100 ng·h/mL
- AUC(0-t) (oral, 400 mg single dose (A4)): 53800 ng·h/mL
- Cmax (oral, 400 mg single dose (A4)): 4510 ng/mL
- Vd/F (oral, 400 mg single dose (A4), read-out: Vz/F): 122 L
- Vd/F (oral, 400 mg single dose (A4), read-out: Vz/F(norm)): 1.74 L/kg
- half-life (oral, 400 mg, 400 mg single dose (A4)): 11.7 h
- Tmax (oral, 400 mg, 400 mg single dose (A4), median, read-out: tmax): 2.5 h
- AUC(0-inf) (oral, 800 mg single dose (A5)): 78700 ng·h/mL
- AUC(0-t) (oral, 800 mg single dose (A5)): 74500 ng·h/mL
- Cmax (oral, 800 mg single dose (A5)): 5910 ng/mL
- Vd/F (oral, 800 mg single dose (A5), read-out: Vz/F): 234 L
- Vd/F (oral, 800 mg single dose (A5), read-out: Vz/F(norm)): 3.26 L/kg
- half-life (oral, 800 mg, 800 mg single dose (A5)): 11.3 h
- Tmax (oral, 800 mg, 800 mg single dose (A5), median, read-out: tmax): 1.8 h
- AUC(0-inf) (oral, 1600 mg single dose (A6)): 86900 ng·h/mL
- AUC(0-t) (oral, 1600 mg single dose (A6)): 73600 ng·h/mL
- Cmax (oral, 1600 mg single dose (A6)): 5580 ng/mL
- Vd/F (oral, 1600 mg single dose (A6), read-out: Vz/F): 525 L
- Vd/F (oral, 1600 mg single dose (A6), read-out: Vz/F(norm)): 7.62 L/kg
- half-life (oral, 1600 mg, 1600 mg single dose (A6)): 19.8 h
- Tmax (oral, 1600 mg, 1600 mg single dose (A6), median, read-out: tmax): 2 h
- Tmax (oral, higher dose levels (200 to 1600 mg), read-out: tmax, latest individual value): ≤ 6 h
- Tmax (po, single oral doses 25 to 1600 mg, read-out: Median tmax, range across all doses): 1.3 to 2.5 h
- CL renal (urine and plasma, oral, 400 mg single dose (A4)): 49.7 mL/min
- CL renal (urine and plasma, oral, 800 mg single dose (A5)): 48.5 mL/min
- CL renal (urine and plasma, oral, 1600 mg single dose (A6)): 47.6 mL/min
- CL renal (urine, oral, 25 mg single dose (A1)): 70.5 mL/min
- CL renal (urine, oral, 75 mg single dose (A2)): 71.8 mL/min
- CL renal (urine, oral, 200 mg single dose (A3)): 63.5 mL/min
SMILES: Cn1cc(-c2cn(-c3ccc(OC(F)(F)F)cc3)c(=O)c3ncn(C)c23)cn1 [Compound I]
- Dose proportionality of systemic exposure (Cmax and AUC) (between 25 and 75 mg): dose-proportional; also recorded: consistent with linear PK

Source: patent publication US11925624B2, “Methods of administering anti-fibrotic therapy” (GENENTECH, INC., priority 2016, dated 2024)
